Reference: PubChem BioAssay (NCI)
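Interpolation was linear, between the two tested concentrations surrounding the appropriate level; five concentrations were tested over 48 hours in 96-well plates. GI50 marks 50% less growth. TGI: total growth inhibition.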

Experiments:
Test in all cases: growth of human tumour cells (NCI), 48 h
HS 578T breast = test system: HS 578T breast
NCI/ADR-RES ovarian = test system: NCI/ADR-RES ovarian
OVCAR-8 ovarian = test system: OVCAR-8 ovarian
HT29 colon = test system: HT29 colon
LOX IMVI melanoma = test system: LOX IMVI melanoma
T-47D breast = test system: T-47D breast
786-0 renal = test system: 786-0 renal
K-562 leukemia = test system: K-562 leukemia
SK-OV-3 ovarian = test system: SK-OV-3 ovarian
NCI-H522 lung = test system: NCI-H522 lung
HCT-15 colon = test system: HCT-15 colon
IGROV1 ovarian = test system: IGROV1 ovarian
SNB-19 CNS = test system: SNB-19 CNS
SF-539 CNS = test system: SF-539 CNS
MALME-3M melanoma = test system: MALME-3M melanoma
HCT-116 colon = test system: HCT-116 colon
PC-3 prostate = test system: PC-3 prostate
MDA-MB-435 = test system: MDA-MB-435
EKVX NSCLC = test system: EKVX NSCLC
SNB-75 CNS = test system: SNB-75 CNS
HOP-62 NSCLC = test system: HOP-62 NSCLC
CCRF-CEM leukemia = test system: CCRF-CEM leukemia
RXF 393 renal = test system: RXF 393 renal
M14 melanoma = test system: M14 melanoma
NCI-H23 lung = test system: NCI-H23 lung
UACC-257 melanoma = test system: UACC-257 melanoma
HCC-2998 colon = test system: HCC-2998 colon
BT-549 breast = test system: BT-549 breast
ACHN renal = test system: ACHN renal
SK-MEL-28 melanoma = test system: SK-MEL-28 melanoma
OVCAR-4 ovarian = test system: OVCAR-4 ovarian
DU-145 prostate = test system: DU-145 prostate
U251 CNS = test system: U251 CNS
MDA-MB-468 breast = test system: MDA-MB-468 breast
UACC-62 melanoma = test system: UACC-62 melanoma
OVCAR-3 ovarian = test system: OVCAR-3 ovarian
A549 NSCLC = test system: A549 NSCLC
KM12 colon = test system: KM12 colon
UO-31 renal = test system: UO-31 renal
MOLT-4 leukemia = test system: MOLT-4 leukemia
NCI-H460 lung = test system: NCI-H460 lung
HOP-92 NSCLC = test system: HOP-92 NSCLC
HL-60(TB) leukemia = test system: HL-60(TB) leukemia
SN12C renal = test system: SN12C renal
MCF7 breast = test system: MCF7 breast
OVCAR-5 ovarian = test system: OVCAR-5 ovarian
COLO 205 colon = test system: COLO 205 colon
CAKI-1 renal = test system: CAKI-1 renal
SK-MEL-2 melanoma = test system: SK-MEL-2 melanoma
SF-295 CNS = test system: SF-295 CNS
NCI-H226 lung = test system: NCI-H226 lung
SR leukemia = test system: SR leukemia
RPMI-8226 leukemia = test system: RPMI-8226 leukemia
TK-10 renal = test system: TK-10 renal
MDA-MB-231 breast = test system: MDA-MB-231 breast
SF-268 CNS = test system: SF-268 CNS
A498 renal = test system: A498 renal
SW-620 colon = test system: SW-620 colon
SK-MEL-5 melanoma = test system: SK-MEL-5 melanoma

With `Nc1nc(Nc2ccc(Cl)cc2)n(Cc2cccc(Br)c2)n1` the GI50 (HS 578T breast) was 24.4 µM, the TGI (HS 578T breast) was 96.3 µM and the GI50 (NCI/ADR-RES ovarian) was 20.2 µM. The TGI (NCI/ADR-RES ovarian) was 51.5 µM, the GI50 (OVCAR-8 ovarian) was 35.7 µM and the TGI (OVCAR-8 ovarian) was > 100 µM. For the same compound, the GI50 (HT29 colon) was 35.6 µM, the TGI (HT29 colon) was > 100 µM and the GI50 (LOX IMVI melanoma) was 17.2 µM. For the same compound, the TGI (LOX IMVI melanoma) was 35.9 µM, the GI50 (T-47D breast) was 30.5 µM and the TGI (T-47D breast) was > 100 µM. The GI50 (786-0 renal) was 34.9 µM, the TGI (786-0 renal) was > 100 µM and the GI50 (K-562 leukemia) was 28 µM. The TGI (K-562 leukemia) was > 100 µM, the GI50 (SK-OV-3 ovarian) was 34.5 µM and the TGI (SK-OV-3 ovarian) was > 100 µM. The GI50 (NCI-H522 lung) was 18.7 µM, the TGI (NCI-H522 lung) was 44.5 µM and the GI50 (HCT-15 colon) was 27 µM. The TGI (HCT-15 colon) was > 100 µM, the GI50 (IGROV1 ovarian) was 30.7 µM and the TGI (IGROV1 ovarian) was > 100 µM. For the same compound, the GI50 (SNB-19 CNS) was 30.7 µM, the TGI (SNB-19 CNS) was > 100 µM and the GI50 (SF-539 CNS) was 22.2 µM. The TGI (SF-539 CNS) was 62.1 µM, the GI50 (MALME-3M melanoma) was 21.5 µM and the TGI (MALME-3M melanoma) was 71.2 µM. The GI50 (HCT-116 colon) was 31.3 µM, the TGI (HCT-116 colon) was > 100 µM and the GI50 (PC-3 prostate) was 29.8 µM. For the same compound, the TGI (PC-3 prostate) was > 100 µM, the GI50 (MDA-MB-435) was 19 µM and the TGI (MDA-MB-435) was 42.2 µM. For the same compound, the GI50 (EKVX NSCLC) was 25.2 µM, the TGI (EKVX NSCLC) was > 100 µM and the GI50 (SNB-75 CNS) was 15.5 µM. The TGI (SNB-75 CNS) was 60.6 µM, the GI50 (HOP-62 NSCLC) was 49 µM and the TGI (HOP-62 NSCLC) was > 100 µM. For the same compound, the GI50 (CCRF-CEM leukemia) was 36.8 µM, the TGI (CCRF-CEM leukemia) was > 100 µM and the GI50 (RXF 393 renal) was 17 µM. For the same compound, the TGI (RXF 393 renal) was 60.5 µM, the GI50 (M14 melanoma) was 29.5 µM and the TGI (M14 melanoma) was > 100 µM. For the same compound, the GI50 (NCI-H23 lung) was 29 µM, the TGI (NCI-H23 lung) was > 100 µM and the GI50 (UACC-257 melanoma) was 33.6 µM. The TGI (UACC-257 melanoma) was > 100 µM, the GI50 (HCC-2998 colon) was 27 µM and the TGI (HCC-2998 colon) was > 100 µM. It also gave a GI50 (BT-549 breast) of 38.8 µM, a TGI (BT-549 breast) of 92 µM and a GI50 (ACHN renal) of 29.3 µM. The TGI (ACHN renal) was > 100 µM, the GI50 (SK-MEL-28 melanoma) was 26 µM and the TGI (SK-MEL-28 melanoma) was > 100 µM. The GI50 (OVCAR-4 ovarian) was 34 µM, the TGI (OVCAR-4 ovarian) was > 100 µM and the GI50 (DU-145 prostate) was 41.1 µM. For the same compound, the TGI (DU-145 prostate) was > 100 µM, the GI50 (U251 CNS) was 31.3 µM and the TGI (U251 CNS) was > 100 µM. It also gave a GI50 (MDA-MB-468 breast) of 16.8 µM, a TGI (MDA-MB-468 breast) of 45.3 µM and a GI50 (UACC-62 melanoma) of 18.3 µM. The TGI (UACC-62 melanoma) was 61.1 µM, the GI50 (OVCAR-3 ovarian) was 33.8 µM and the TGI (OVCAR-3 ovarian) was > 100 µM. For the same compound, the GI50 (A549 NSCLC) was 32.9 µM, the TGI (A549 NSCLC) was > 100 µM and the GI50 (KM12 colon) was 33.3 µM. The TGI (KM12 colon) was > 100 µM, the GI50 (UO-31 renal) was 21 µM and the TGI (UO-31 renal) was 90.4 µM. For the same compound, the GI50 (MOLT-4 leukemia) was 25.6 µM, the TGI (MOLT-4 leukemia) was > 100 µM and the GI50 (NCI-H460 lung) was 23.7 µM. For the same compound, the TGI (NCI-H460 lung) was 57.5 µM, the GI50 (HOP-92 NSCLC) was 19.4 µM and the TGI (HOP-92 NSCLC) was 63.8 µM. It also gave a GI50 (HL-60(TB) leukemia) of 24.6 µM, a TGI (HL-60(TB) leukemia) of 71.8 µM and a GI50 (SN12C renal) of 26.2 µM. The TGI (SN12C renal) was > 100 µM, the GI50 (MCF7 breast) was 25.1 µM and the TGI (MCF7 breast) was > 100 µM. It also gave a GI50 (OVCAR-5 ovarian) of 22.3 µM, a TGI (OVCAR-5 ovarian) of 73.5 µM and a GI50 (COLO 205 colon) of 37.4 µM. For the same compound, the TGI (COLO 205 colon) was > 100 µM, the GI50 (CAKI-1 renal) was 25.9 µM and the TGI (CAKI-1 renal) was > 100 µM. It also gave a GI50 (SK-MEL-2 melanoma) of 18.9 µM, a TGI (SK-MEL-2 melanoma) of 38.1 µM and a GI50 (SF-295 CNS) of 22.6 µM. For the same compound, the TGI (SF-295 CNS) was 74.9 µM, the GI50 (NCI-H226 lung) was 25.3 µM and the TGI (NCI-H226 lung) was > 100 µM. The GI50 (SR leukemia) was 57.6 µM, the TGI (SR leukemia) was > 100 µM and the GI50 (RPMI-8226 leukemia) was 31.6 µM. For the same compound, the TGI (RPMI-8226 leukemia) was > 100 µM, the GI50 (TK-10 renal) was 40 µM and the TGI (TK-10 renal) was > 100 µM. For the same compound, the GI50 (MDA-MB-231 breast) was 30.5 µM, the TGI (MDA-MB-231 breast) was > 100 µM and the GI50 (SF-268 CNS) was 27.9 µM. For the same compound, the TGI (SF-268 CNS) was > 100 µM, the GI50 (A498 renal) was 26.7 µM and the TGI (A498 renal) was 85.9 µM. The GI50 (SW-620 colon) was 32.8 µM, the TGI (SW-620 colon) was > 100 µM and the GI50 (SK-MEL-5 melanoma) was 17.4 µM. For the same compound, the TGI (SK-MEL-5 melanoma) was 33.5 µM.
